{
  "source": "patent US20230172981A1",
  "about": "“METHODS AND COMPOSITIONS FOR STIMULATION OF CHIMERIC ANTIGEN RECEPTOR T CELLS WITH HAPTEN LABELLED CELLS” (Seattle Children's Hospital (dba Seattle Children's …, priority 2020, published 2023)",
  "test_system": "CD19+K562 cells",
  "assay": "Cytokine release by antiFL CAR T cells with hapten-labeled cells",
  "assay_type": "cell-based",
  "details": "trend; hapten-labeled cells prepared with 5 μM FL-DHPE",
  "experimental": "Hapten-labeled cells were prepared. CD19+K562 cells were incubated either overnight with 5 μM FL-DHPE or for 20 min with an CD19 antibody labeled with FITC. The hapten-labeled cells were incubated with either one of two antiFL CAR T cells (FITC-E2 scFv, or 4M5.3 scFv). […] Hudecek M, et al., (2013) Clin Cancer Res. 19:3153-64, which is incorporated by reference in its entirety.\nThe levels of cytokines released by the antiFL CAR T cells were determined. […] The levels of released IFN-γ, and TNF-α were lower for hapten-labeled cells contacted with the antiFL(4M5.3) CAR T cell.",
  "data": [
    {"compound": "CCCCCCCCCCCCCCCC(=O)OCC(COP(=O)(O)OCCNC(=S)Nc1ccc2c(c1)C(=O)OC21c2ccc(O)cc2Oc2cc(O)ccc21)OC(=O)CCCCCCCCCCCCCCC", "note": "(stereo not shown) [FL-DHPE, N-(Fluorescein-5-Thiocarbamoyl)-1,2-Dihexadecanoyl-sn-Glycero-3-Phosphoethanolamine]", "values": [
      {"measurement": "cytokine release induced, compared to cells prepared with CD19 antibody labeled with FITC", "value": "higher levels of cytokine release"}
    ]}
  ]
}
